From patent US5571701A, “Antibiotic, balhimycin, a process for its production and its use as pharmaceutical” (priority 1990, dated 1996) come the findings set out here.

Structures can show the parent of a compound that is named as a salt.

Data set [1] is described as follows: Solubility (physico-chemical properties). Format: physicochemical. The note with it: as its trifluoroacetate salt; solvents in which soluble.
The test system of a further data set is P. vulaaris. As to the kind of experiment: Minimum inhibitory concentration (MIC), antibacterial activity. The class given is cell-based.
Another data set concerns Ps. aeruaingu. Described as above. Format: cell-based.

One may read the MIC as the smallest concentration in the dilution series that meets the test's criterion for growth inhibition. Higher therefore signals a need for much substance. Take `CNC(CC(C)C)C(=O)NC1C(=O)NC(CC(N)=O)C(=O)NC2C(=O)NC3C(=O)NC(C(=O)NC(C(=O)O)c4cc(O)cc(O)c4-c4cc3ccc4O)C(OC3C[C@](C)(N)C(=O)C(C)O3)c3ccc(c(Cl)c3)Oc3cc2cc(c3OC2O[C@H](CO)C(O)[C@H](O)C2O)Oc2ccc(cc2Cl)C1O` (stereo partly drawn) [Balhimycin trifluoroacetate, Balhimycin]: the Solubility entry in data set [1] is on record as “Water, dimethylsulfoxide”. Moreover, the MIC in the data set with P. vulaaris and against Ps. aeruaingu was greater than 100 µg/mL in each case.
